We go through 11 compounds from patent US8492559B2, “Substituted indole compounds” (Gruenenthal GmbH, priority 2009, dated 2013).

Structures are written as SMILES.

This assay deals with T1, B1R receptor of the rat (rB1R) (Rattus norvegicus, UniProt P97583).
T1 construct: expressed in transfected cells; host or cells: CHO K1 cells
T1 sequence (P97583 1-337): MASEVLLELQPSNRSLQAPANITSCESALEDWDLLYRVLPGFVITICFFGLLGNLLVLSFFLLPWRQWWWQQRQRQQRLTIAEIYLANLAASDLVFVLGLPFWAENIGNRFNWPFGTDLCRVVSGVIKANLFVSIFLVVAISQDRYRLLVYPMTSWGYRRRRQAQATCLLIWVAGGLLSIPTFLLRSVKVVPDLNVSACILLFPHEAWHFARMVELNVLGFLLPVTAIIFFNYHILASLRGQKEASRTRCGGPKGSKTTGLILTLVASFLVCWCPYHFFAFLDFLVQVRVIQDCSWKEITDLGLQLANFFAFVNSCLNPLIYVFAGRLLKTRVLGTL
Briefly: Functional investigation on the bradykinin 1 receptor (B1R), FLIPR Ca2+ assay, rB1R cells. The format is cell-based. The following applies: CHO K1 cells with rat B1R, agonist Des-Arg9 bradykinin, % of maximum achievable inhibition; for inhibition at 10 µM: CHO-K1, 10 μM test substance, read-out: B1R antagonism, rat [10 μM] % inhibition; for B1R antagonism, rat [10 μM] % inhibition: 10 μM test substance. The method in brief: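 Ca2+ influx is measured as peak Fluo-4 fluorescence in a FLIPR protocol with two substance additions, following Lys-Des-[MUT] bradykinin (0.5 nM) or Des-[MUT] bradykinin (100 nM) challenge. Varying antagonist concentrations give % inhibition relative to maximum achievable and an IC50. Determinations in duplicate or triplicate, repeated independently (N>=2).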

The term inhibition denotes the relative decrease from the control value, in per cent. Turning to `COc1cc(C)c(S(=O)(=O)Nc2cccc3ccn(CC(=O)N(C)CCCN4CCN(c5ccncc5)CC4)c23)c(C)c1` [G_CC-88, 2-[7-[[(4-Methoxy-2,6-dimethyl-phenyl)sulfonyl]amino]-1H-indol-1-yl]-N-methyl-N-[3-(4-pyridin-4-yl-piperazin-1-yl)-propyl]-acetamide], the inhibition at 10 µM worked out at 101%.

With `COc1cc(C)c(S(=O)(=O)Nc2cccc3ccn(CC(=O)N4CCC5(CC4)CC(c4ccncc4)=NO5)c23)c(C)c1` [Compound G-13, 4-Methoxy-2,6-dimethyl-N-(1-(2-oxo-2-(3-(pyridin-4-yl)-1-oxa-2,8-diazaspiro[4.5]dec-2-en-8-yl)ethyl)-1H-indol-7-yl)benzenesulfonic acid amide], the inhibition at 10 µM is 96%.

Take `Cc1cccc2c1C(=O)N(c1ccc3ccn(CC(=O)N4CCC5(CC4)CCN(c4ccncc4)CC5)c3c1)C2` [Compound G-26, 7-Methyl-2-[1-[2-oxo-2-(9-pyridin-4-yl-3,9-diazaspiro[5.5]undecan-3-yl)-ethyl]-1H-indol-6-yl]-2,3-dihydro-isoindol-1-one]: the inhibition at 10 µM is 102%.

Turning to `Cn1c2c(c3c(Cl)cccc31)C(=O)N(c1ccc3ccn(CC(=O)N4CCC5(CC4)CCN(c4ccncc4)CC5)c3c1)C2` [Compound G-23, 8-Chloro-4-methyl-2-[1-[2-oxo-2-(9-pyridin-4-yl-3,9-diazaspiro[5.5]undecan-3-yl)-ethyl]-1H-indol-6-yl]-3,4-dihydro-2H-pyrrolo[3,4-b]indol-1-one], the inhibition at 10 µM is 106%.

`COc1cc(C)c(S(=O)(=O)Nc2cccc3ccn(CCC(=O)N4CCN(CC5CCN(C)CC5)CC4)c23)c(C)c1` [G_CC-43, 4-Methoxy-2,6-dimethyl-N-[1-[3-[4-[(1-methyl-piperidin-4-yl)-methyl]-piperazin-1-yl]-3-oxo-propyl]-1H-indol-7-yl]-benzenesulfonic acid amide]: the inhibition at 10 µM came to 103%.

`O=C(CCn1ccc2ccc(N3Cc4cccc(Cl)c4C3=O)cc21)N1CCC2(CC1)CCN(c1ccncc1)CC2` [G_CC-67, 7-Chloro-2-[1-[3-oxo-3-(3-pyridin-4-yl-3,9-diazaspiro[5.5]undecan-9-yl)-propyl]-1H-indol-6-yl]-2,3-dihydro-isoindol-1-one]: the “B1R antagonism, rat [10 μM] % inhibition” value was 95%.

As for `COc1cc(C)c(S(=O)(=O)Nc2cccc3ccn(CC(=O)N4CCC5(CCN(c6ccncc6)C5)C4)c23)c(C)c1` (centres unmarked) [Compound G-17, 4-Methoxy-2,6-dimethyl-N-(1-(2-oxo-2-(7-(pyridin-4-yl)-2,7-diazaspiro[4.4]nonan-2-yl)ethyl)-1H-indol-7-yl)benzenesulfonic acid amide], the inhibition at 10 µM is 95%.

For the compound `COc1cc(C)c(S(=O)(=O)Nc2cccc3ccn(CC(=O)N4CCC(CCN5CCCC5)CC4)c23)c(C)c1` [Compound G-02, 4-Methoxy-2,6-dimethyl-N-[1-[2-oxo-2-[4-(2-pyrrolidin-1-yl-ethyl)-piperidin-1-yl]-ethyl]-1H-indol-7-yl]-benzenesulfonic acid amide], the inhibition at 10 µM was 100%.

For the compound `O=C(CCn1ccc2cccc(N3Cc4cccc(Cl)c4C3=O)c21)N1CCC2(CC1)CCN(c1ccncc1)CC2` [Compound G-10, 7-Chloro-2-(1-(3-oxo-3-(9-(pyridin-4-yl)-3,9-diazaspiro[5.5]undecan-3-yl)propyl)-1H-indol-7-yl)isoindolin-1-one], the “B1R antagonism, rat [10 μM] % inhibition” value came out at 76%.

In the case of `Cc1ccc2n1C(=O)N(c1ccc3ccn(CC(=O)N4CCC5(CC4)CCN(c4ccncc4)CC5)c3c1)C2` [Compound G-27, 5-Methyl-2-[1-[2-oxo-2-(9-pyridin-4-yl-3,9-diazaspiro[5.5]undecan-3-yl)-ethyl]-1H-indol-6-yl]-1,2-dihydro-pyrrolo[2,1-e]imidazol-3-one], the inhibition at 10 µM is 99%.

In the case of `COc1cc(C)c(S(=O)(=O)Nc2cccc3ccn(CC(=O)N4CCC5(CCN(c6ccncc6)CC5)C4)c23)c(C)c1` [Compound G-14, 4-Methoxy-2,6-dimethyl-N-(1-(2-oxo-2-(8-(pyridin-4-yl)-2,8-diazaspiro[4.5]decan-2-yl)ethyl)-1H-indol-7-yl)benzenesulfonic acid amide], the inhibition at 10 µM turned out to be 96%.
